Experimental findings from patent publication US11130740B2, “Substituted 2,3-dihydro-1H-indene analogs and methods using same” (Arbutus Biopharma Corporation, priority 2017, dated 2021) are described below.

The target of this test is PD-L1 His protein / PD-1 Fc protein (Homo sapiens (Human), UniProt Q9NZQ7). In words: HTRF assay (PD-1/PD-L1 interaction). In kind it is binding. The settings on record: PD-L1 His 6 nM, PD-1 Fc 6 nM; inhibitors diluted 3-fold from 20 μM. Here is the method: PD-L1 His protein was prepared and added at the final concentration of 6 nM in the White opaque 384 well plate (Corning cat #3824BC). PD-L1 small molecule inhibitors were diluted by 3-fold starting from 20 μM and a final concentration of 0.001 μM and added to the well. PD-1 Fc protein was added at the final concentration of 6 nM. PD-L1 His protein, PD-L1 small molecule inhibitors, and PD1 Fc proteins were added to the well in this order, with each 5 μl volume, and were incubated for 15 minutes at room temperature. PAb anti-Human IgG-XL665 (Cisbio, cat #61HFCXLA) and Mab anti-6HIS Tb cryptate Gold (Cisbio, cat #61HI2TLA) were mixed at 6.7 nM and 0.35 nM respectively, and total 5 μl volume of mixture was added to the well and incubated at room temperature for 1 hour. The plate was read using PerkinElmer Envision plate reader and data was analyzed by Prism 6 software.
Chain of PD-L1 His protein / PD-1 Fc protein (Q9NZQ7 19-238): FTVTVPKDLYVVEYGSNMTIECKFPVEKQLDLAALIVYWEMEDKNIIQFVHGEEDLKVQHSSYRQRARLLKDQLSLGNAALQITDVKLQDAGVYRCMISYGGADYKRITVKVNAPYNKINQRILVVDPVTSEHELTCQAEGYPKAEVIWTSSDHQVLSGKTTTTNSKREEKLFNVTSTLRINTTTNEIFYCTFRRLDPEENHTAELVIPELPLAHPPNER
(TR-FRET usually uses a lanthanide donor and a delayed reading to cut background.)
By IC50 is commonly meant the concentration that inhibits the measured activity by half. `CC(=O)NCCN[C@H]1c2ccc(OCc3cccc(-c4ccccc4)c3C)cc2C[C@@H]1O` [Compound 10A_2, N-(2-(((1S,2S)-2-hydroxy-5-((2-methyl-[1,1′-biphenyl]-3-yl)methoxy)-2,3-dihydro-1H-inden-1-yl)amino)ethyl)acetamide] yielded a half-maximal inhibitory concentration (IC50) of 0.204 µM. `CC(=O)NCCN[C@@H]1c2ccc(OCc3cccc(-c4ccccc4)c3C)cc2C[C@H]1O` [Compound 10A_2_1, N-(2-(((1R,2R)-2-hydroxy-5-((2-methyl-[1,1′-biphenyl]-3-yl)methoxy)-2,3-dihydro-1H-inden-1-yl)amino)ethyl)acetamide] returned a half-inhibitory concentration (IC50) of 5 µM. In turn, `CC(=O)NCCN[C@H]1c2ccc(OCc3cccc(-c4ccccc4)c3C)cc2C[C@@H]1O` [Compound 10A_2_2, N-(2-(((1S,2S)-2-hydroxy-5-((2-methyl-[1,1′-biphenyl]-3-yl)methoxy)-2,3-dihydro-1H-inden-1-yl)amino)ethyl)acetamide] came in with an IC50 of 0.17 µM. For the molecule `CC(=O)NCCN[C@@H]1c2ccc(OCc3cccc(-c4ccccc4)c3C)cc2C[C@@H]1O` [Compound 10A_l, N-(2-(((1R,2S)-2-hydroxy-5-((2-methyl-[1,1′-biphenyl]-3-yl)methoxy)-2,3-dihydro-1H-inden-1-yl)amino)ethyl)acetamide], half-maximal inhibition (IC50) was put at 1.08 µM. On to `CC(=O)NCCN[C@H]1c2ccc(OCc3cccc(-c4ccccc4)c3C)cc2C[C@H]1O` [Compound 10A_l_1, N-(2-(((1S,2R)-2-hydroxy-5-((2-methyl-[1,1′-biphenyl]-3-yl)methoxy)-2,3-dihydro-1H-inden-1-yl)amino)ethyl)acetamide], for which the concentration for half-maximal inhibition (IC50) is 0.863 µM. `CC(=O)NCCN[C@@H]1c2ccc(OCc3cccc(-c4ccccc4)c3C)cc2C[C@@H]1O` [Compound 10A_l_2, N-(2-(((1R,2S)-2-hydroxy-5-((2-methyl-[1,1′-biphenyl]-3-yl)methoxy)-2,3-dihydro-1H-inden-1-yl)amino)ethyl)acetamide] yielded an IC50 of 5.09 µM. In turn, `CC(=O)NCCN[C@@H]1c2ccc(OCc3cccc(-c4ccc5c(c4)OCCO5)c3C)cc2C[C@@H]1O` [Compound 10B_1, N-(2-(((1R,2S)-5-((3-(2,3-dihydrobenzo[b][1,4]dioxin-6-yl)-2-methylbenzyl)oxy)-2-hydroxy-2,3-dihydro-1H-inden-1-yl)amino)ethyl)acetamide] returned an IC50 of 3.14 µM.

`Cc1c(COc2ccc3c(c2)C[C@H](O)[C@H]3NCCS(C)(=O)=O)cccc1-c1ccccc1` [Compound 10C_2, (1S,2S)-5-((2-methyl-[1,1′-biphenyl]-3-yl)methoxy)-1-((2-(methylsulfonyl)ethyl)amino)-2,3-dihydro-1H-inden-2-ol]: the half-inhibitory concentration (IC50) was more than 20 µM. Molecule `Cc1c(COc2ccc3c(c2)C[C@H](O)[C@@H]3NCCS(C)(=O)=O)cccc1-c1ccccc1` [Compound 10C_l, (1R,2S)-5-((2-methyl-[1,1′-biphenyl]-3-yl)methoxy)-1-((2-(methylsulfonyl)ethyl)amino)-2,3-dihydro-1H-inden-2-ol] registered an IC50 of more than 20 µM.

In turn, `Cc1c(COc2ccc3c(c2)C[C@H](O)C3NCCN2CCN(C)CC2)cccc1-c1ccccc1` (stereo partly drawn) [Compound 10D, (2S)-5-((2-methyl-[1,1′-biphenyl]-3-yl)methoxy)-1-((2-(4-methylpiperazin-1-yl)ethyl)amino)-2,3-dihydro-1H-inden-2-ol] returned an IC50 of 5.15 µM. For `Cc1c(COc2ccc3c(c2)C[C@H](O)[C@@H]3NCCN2CCOCC2)cccc1-c1ccccc1` [Compound 10E_1, (1R,2S)-5-((2-methyl-[1,1′-biphenyl]-3-yl)methoxy)-1-((2-morpholinoethyl)amino)-2,3-dihydro-1H-inden-2-ol], the IC50 was determined as 7.78 µM. In turn, `Cc1c(COc2ccc3c(c2)C[C@H](O)[C@H]3NCCN2CCOCC2)cccc1-c1ccccc1` [Compound 10E_2, (1S,2S)-5-((2-methyl-[1,1′-biphenyl]-3-yl)methoxy)-1-((2-morpholinoethyl)amino)-2,3-dihydro-1H-inden-2-ol] returned an IC50 of 1.08 µM. The molecule `Cc1c(COc2ccc3c(c2)C[C@H](O)[C@@H]3NCCO)cccc1-c1ccccc1` [Compound 10F_1, (1R,2S)-1-((2-hydroxyethyl)amino)-5-((2-methyl-[1,1′-biphenyl]-3-yl)methoxy)-2,3-dihydro-1H-inden-2-ol] displayed an IC50 of 1.32 µM. Take `Cc1c(COc2ccc3c(c2)C[C@H](O)[C@H]3NCCO)cccc1-c1ccccc1` [Compound 10F_2, (1S,2S)-1-((2-hydroxyethyl)amino)-5-((2-methyl-[1,1′-biphenyl]-3-yl)methoxy)-2,3-dihydro-1H-inden-2-ol]: inhibition was half-maximal at 1.17 µM (IC50). Take `CC(=O)NCCNC1COc2cc(OCc3cccc(-c4ccccc4)c3C)ccc21` (stereo not drawn) [Compound 16A, N-(2-((6-((2-methyl-[1,1′-biphenyl]-3-yl)methoxy)-2,3-dihydrobenzofuran-3-yl)amino)ethyl)acetamide]: half-maximal inhibition (IC50) was put at 3.6 µM. In the case of `CC(=O)NCCNC1COc2cc(OCc3cccc(-c4ccc5c(c4)OCCO5)c3C)ccc21` (stereo not drawn) [Compound 16B, N-(2-((6-((3-(2,3-dihydrobenzo[b][1,4]dioxin-6-yl)-2-methylbenzyl)oxy)-2,3-dihydrobenzofuran-3-yl)amino)ethyl)acetamide], the IC50 is 3.8 µM. Regarding `CC(=O)NCCNC1CCc2cc(OCc3cccc(-c4ccccc4)c3C)ccc21` (stereo not drawn) [Compound 16C, N-(2-((5-((2-methyl-[1,1′-biphenyl]-3-yl)methoxy)-2,3-dihydro-1H-inden-1-yl)amino)ethyl)acetamide], 0.379 µM corresponded to half-maximal inhibition (IC50). The result for `CC(=O)NCCNC1CCc2cc(OCc3cccc(-c4ccc5c(c4)OCCO5)c3C)ccc21` (stereo not drawn) [Compound 16D, N-(2-((5-((3-(2,3-dihydrobenzo[b][1,4]dioxin-6-yl)-2-methylbenzyl)oxy)-2,3-dihydro-1H-inden-1-yl)amino)ethyl)acetamide] reads 0.323 µM.
